{"source": "patent US9920037B2", "about": "“Diaryl isoxazoline compound” (Elanco Tiergesundheit AG, priority 2014, dated 2018)", "key": {"[1]": {"system": "Lepeophtheirus salmonis copepodids", "assay": "Activity in vitro against Lepeophtheirus salmonis at copepodid stage", "assay_type": "cell-based", "settings": "0.16 ng/ml sea water; 1 hour contact, then 48 h in untreated sea water", "procedure": "Sea lice copepodids were used to seed a 96-well plate containing the test substances to be evaluated for antiparasitic activity. The racemic compound of formula (I) according to the present invention and the racemic compound No. 1.48 according to WO2010/070068, page 47 were tested by serial dilution in order to determine its minimal effective dose (MED). Copepodids were left in contact with each test compound diluted in sea water for 1 hour. They were then incubated in untreated sea water for 48 h. Efficacy against sea lice was then confirmed if no copepodid moved over a period of 80 seconds."}, "[2]": {"system": "adult R. sanguineus ticks", "assay": "Activity in vivo against Rhipicephalus sanguineus ticks (dog tick) on rabbits", "settings": "spray application on ears; for threshold concentration where the efficacy drops below 90%: rabbits", "procedure": "On day 0, rabbits are treated with the test compound at a given dose by spray application on their ears only. On day +1, the animals are infested on their ears with adult R. sanguineus ticks (sex ratio 1:1). Evaluation of efficacy is performed 24 h, 48 h, and 72 h after infestation by counting the numbers of dead and live ticks recovered from the animals. Efficacy is expressed as comparison with a placebo treated group using the Abbot's formula. Infestations can be repeated at weekly intervals until efficacy drops. The racemic compound of formula (I) according to the present invention and the racemic compound No. 1.48 according to WO2010/070068, page 47 were tested at different concentrations in order to determine the threshold concentration where the efficacy drops below 90%."}, "[3]": {"system": "Rhipicephalus sanguineus nymphs", "assay": "Activity in vivo against Rhipicephalus sanguineus nymphs on Mongolian gerbils (spray application)", "settings": "1.0 mg/kg animal biomass, Mongolian gerbils (Meriones unguiculatus)", "procedure": "On day 0, gerbils are treated with the respective test compound at a given dose by spray application. On day +1 (+2), the animals are infested with nymphs of R. sanguineus. Ticks are left on the animals until full repletion. Seven days after infestation nymphs dropped off fully engorged are collected and counted. Efficacy in killing is expressed as a tick number reduction in comparison with a placebo treated group, using the Abbot's formula."}, "[4]": {"system": "sea lice Lepeophtheirus salmonis", "assay": "Activity in vivo against copepodids (Lepeophtheirus salmonis) on Atlantic salmon, medicated feed", "settings": "Atlantic salmon (Salmo salar L.), medicated feed 1 mg/kg/day for 7 consecutive days; counted 10 days after treatment end", "procedure": "The study used two groups of 45 Atlantic salmon (Salmo salar L.), each, with an average weight of 400 g per fish. Fish were challenged with sea lice copepodids Lepeophtheirus salmonis) (Cohort I). When cohort I reached pre-adult stage, all fish were challenged with a second cohort of sea lice copepodids (Cohort II).\nTreatment was initiated when sea lice in cohort I became pre-adult/adults and sea lice in cohort II were early chalimus stages:\nOne group was treated with medicated feed-pellet containing the (S)-enantiomer of the compound of formula (I) at 1 mg/kg/day, during 7 consecutive days. One group was a placebo control group. The medicated pellets were prepared by dry coating commercially available fish feed pellets with a pre-mix containing the (S)-enantiomer of the compound of formula (I) to reach a content of 0.02% (w/w) active ingredient in the fish feed.\nSea lice were counted 10 days after treatment end."}}}
{"compound": "C#CCNC(=O)CNC(=O)c1sc(C2=NOC(c3cc(Cl)cc(Cl)c3)(C(F)(F)F)C2)cc1C", "note": "(racemic) [racemic compound No. 1.48, reference compound]", "values": [{"measurement": "efficacy (no copepodid moved over 80 seconds)", "setting": "[1]", "result": 0, "unit": "%"}, {"measurement": "efficacy (vs placebo, Abbot's formula)", "setting": "[2]; 15 mg/m^2, rabbits", "result": 82, "unit": "%"}, {"measurement": "threshold concentration where the efficacy drops below 90%", "setting": "[2]", "result": 15, "unit": "mg/m^2"}, {"measurement": "efficacy (tick number reduction vs placebo, Abbot's formula)", "setting": "[3]", "result": 77, "unit": "%"}]}
{"compound": "C#CCNC(=O)CNC(=O)c1sc(C2=NOC(c3cc(Cl)c(Cl)c(Cl)c3)(C(F)(F)F)C2)cc1C", "note": "(racemic) [racemic compound of formula (I)]", "values": [{"measurement": "efficacy (no copepodid moved over 80 seconds)", "setting": "[1]", "result": 100, "unit": "%"}, {"measurement": "efficacy (vs placebo, Abbot's formula)", "setting": "[2]; 3 mg/m^2, rabbits", "result": 73, "unit": "%"}, {"measurement": "efficacy (vs placebo, Abbot's formula)", "setting": "[2]; 7.5 mg/m^2, rabbits", "result": 93, "unit": "%"}, {"measurement": "threshold concentration where the efficacy drops below 90%", "setting": "[2]", "result": 3, "unit": "mg/m^2"}, {"measurement": "efficacy (tick number reduction vs placebo, Abbot's formula)", "setting": "[3]", "result": 87, "unit": "%"}]}
{"compound": "C#CCNC(=O)CNC(=O)c1sc(C2=NO[C@@](c3cc(Cl)c(Cl)c(Cl)c3)(C(F)(F)F)C2)cc1C", "note": "[(S)-enantiomer of the compound of formula (I)]", "values": [{"measurement": "efficacy (sea lice count)", "setting": "[4]", "result": 100, "unit": "%"}]}
